Consider one substance from PMC5248581 (PeerJ, 2017).

Data set [1] relates to male Sprague-Dawley rats. The protocol:
All surgical and experimental procedures were reviewed and approved by the Animal Care and Handling Committee of Laval University, in accordance with the Canadian Council on Animal Care (file no. 2012-223). Experiments were performed on male Sprague-Dawley rats (300–375 g) purchased from Charles River Laboratories (St-Constant, Qc, Canada). Only animals of the male gender have been studied to be consistent with related and recently published data ([Jean et al., 2016a]). The rats were housed in a temperature-controlled room (22 ± 1 °C) on a 12 h/12 h light-dark cycle (lights on at 0600) and had free access to normal chow diet and tap water. They were allowed to acclimate to their environmental conditions for one week prior to being studied. At the end of the acclimation period, the rats were anesthetised with sodium pentobarbital (50 mg kg^−1, i.p., supplemented as required) and had one catheter implanted into the right jugular vein (for intravenous ( i.v.) injection) and one into the left femoral artery (for direct and continuous measurement of blood pressure and heart rate as previously described, [Jean et al., 2016a]). In some experiments, a miniaturized pulsed Doppler flow probe ([Haywood et al., 1981]) was implanted around the distal abdominal aorta (below the level of the ileocaecal artery) through a midline abdominal incision to monitor changes in hindquarter hemodynamic, according to the method previously developed by [Gardiner & Bennett (1988)] and as previously described ([Bachelard et al., 1992]; [Jean et al., 2016a]). Experiments started at least 30 min following the end of surgery in anesthetised rats.
Baseline heart rate and phasic and mean arterial blood pressure were recorded over a period of 15 min in anesthetized rats. […] Peptides were dissolved in isotonic saline (0.9% NaCl) containing 0.1% BSA to prevent the adsorption of peptide to the glassware and plastic surfaces. All i.v. injections were given as 100 µl boluses which were washed in with a further 100 µl of saline (the dead space of the catheter). Only one peptide was tested per group of rats and each injection started with saline-BSA 0.1% followed by the lowest dose of peptide. The next dose was administered once all recorded cardiovascular parameters had returned to baseline after the previous injection (usually 2–10 min). At the end of the experiments each animal was euthanized with an overdose of sodium pentobarbital (240 mg/kg, i.v.).
In these experiments, enalaprilat was intravenously administered as bolus (0.1 mg/kg, 0.1 ml) following a 10 min period of baseline measurements of heart rate and blood pressure. Fifteen minutes later, a dose–response curve to MK was obtained, as described above. […] In these experiments, icatibant was intravenously administered as bolus (25 µg/kg, 0.1 ml) 15 min before the i.v. injection of increasing doses of MK, as above. […] In these experiments, pyrilamine was intravenously administered as bolus (5 mg/kg, 0.1 ml) 15 min before the i.v. injection of increasing doses of MK, as above.
(§1) Results are presented as means ± s.e.m. Radioligand binding data were fitted by nonlinear regression to a one-site competition equation using a least-square method (Prism 5.0; GraphPad Software Inc., San Diego, CA, USA) and IC50 values calculated from this procedure. The same computer program was used to draw concentration-effect curves (least square fitting of sigmoidal dose–response equation with variable slope) and to derive contractile EC50 values. Data describing baseline values of heart rate and mean arterial blood pressure and hypotensive responses to peptides in anesthetized rats were assessed by using one-way analysis of variance (ANOVA) followed by the Dunnett’s test (repeated comparison with a common control).

A further data set deals with MRGPRX2 (human sequence). As to conditions: ref McNeil et al., 2015; cited from earlier work. An excerpt: MRGPRX2 has been recently described as a promiscuous receptor for cationic polymers and drugs that produce direct mast cell degranulation ([McNeil et al., 2015]). […] The contractile effect of MK on the human umbilical vein and ...
Data set [2] concerns the target T1, human isolated umbilical vein (BK B2R; histamine H1R) (Homo sapiens, UniProt P30411).
T1 sequence (P30411 1-391): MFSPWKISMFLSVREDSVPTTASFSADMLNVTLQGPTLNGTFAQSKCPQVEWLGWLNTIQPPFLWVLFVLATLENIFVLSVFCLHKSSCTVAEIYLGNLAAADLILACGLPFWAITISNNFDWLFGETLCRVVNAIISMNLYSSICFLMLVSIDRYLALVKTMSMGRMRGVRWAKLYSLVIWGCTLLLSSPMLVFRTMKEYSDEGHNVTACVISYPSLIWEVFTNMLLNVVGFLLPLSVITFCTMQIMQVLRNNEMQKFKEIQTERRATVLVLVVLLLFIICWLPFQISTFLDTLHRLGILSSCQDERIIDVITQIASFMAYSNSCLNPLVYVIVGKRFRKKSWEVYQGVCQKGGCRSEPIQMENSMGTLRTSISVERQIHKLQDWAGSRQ
As to conditions: antagonist 1 µM, 30 min before MK.
Source text: The institutional research ethics board (CHU de Québec) approved the anonymous use of human umbilical cord segments obtained after elective cesarean section deliveries (file number: 2012-323). Informed written consent was obtained from mothers.
as §1, with “control). The effects of drugs on the hypotensive responses to each dose of MK were assessed by using ANOVA followed by the Dunnett’s test.” for “control).”

Data set [3] deals with male Sprague-Dawley rats. As to the kind of experiment: Acute hindquarter hemodynamic effects in anesthetized rats. In kind it is in vivo, rat. As to conditions: icatibant 25 µg/kg i.v., 15 min before. The protocol:
Before each experiment, a 30-min stabilization period was allowed, during which continuous recording of heart rate, phasic and mean blood pressure and phasic and mean Doppler shift signals from the hindquarter probe were made in anesthetized rats, using the Biopac data acquisition and analysis system previously described ([Jean et al., 2016a]). Then, a first group of rats (n = 8) received successive i.v. injections of peptide vehicle (saline-BSA 0.1%), BK (6.4 µg/kg), and MK (1.6 µg/kg). […] Further experiments were made in a second group of rats (n = 6) pretreated with the B2R antagonist, icatibant. […] At the end of the experiments the rats were euthanized with an overdose of anesthetic (pentobarbital 240 mg/kg, i.v.).
Results are presented as means ± s.e.m.

With “D-Arg-[Hyp^3, Thi^5, D-Tic^7, Oic^8] bradykinin [icatibant]”, the “Basal mean arterial blood pressure after pre-treatment” value with male Sprague-Dawley rats [1] (15 min after i.v., enalaprilat 0.1 mg/kg n=6, icatibant 25 µg/kg n=6, pyrilamine 5 mg/kg n=16, means ± s.e.m., control 96.5 ± 2.5) is 90.3 ± 4.6. Moreover, the “Basal heart rate after pre-treatment” value in the data set with male Sprague-Dawley rats [1] (15 min after i.v., enalaprilat 0.1 mg/kg n=6, icatibant 25 µg/kg n=6, pyrilamine 5 mg/kg n=16, means ± s.e.m., control 351 ± 10, * P < 0.01 vs control) was determined as 362 ± 28. For the same substance, in the data set on male Sprague-Dawley rats [1] (enalaprilat 0.1 mg/kg, icatibant 25 µg/kg, pyrilamine 5 mg/kg i.v., 15 min before MK), the “effect of pretreatment on hypotensive effect of MK” value is recorded as “abated”. Moreover, the “MRGPRX2-activating concentration over B2R-antagonizing concentration” value with MRGPRX2 (human sequence) was 5 to 6 orders of magnitude. For the same substance, the “effect of receptor antagonist on MK-induced contraction” value in data set [2] is recorded as “profound inhibitory effect”. In addition, the “effect of icatibant on cardiovascular responses to BK and MK” value in the data set with male Sprague-Dawley rats [3] was “all significantly abated”; in the data set on male Sprague-Dawley rats [3] (listed as Icatibant), “significantly abated all types of responses to the 2 kinins”.
